Like-named read-outs stand apart in the source and are kept apart here.
Columns and labels:
Assay type in all cases: cell-based
[1] = tested on: HL-60; test: CellTiterGlo viability assay, initial screening; details: Homo sapiens, read-out: IC50 (relative IC50)
Procedure, shortened: (§1)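 CTG viability readout after ~72 hr compound exposure. 9 pts, 3.16-fold serial dilution in DMSO, final down to 19.9 nM; DMSO 0.5% final; duplicates; standard CO2 culture.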

[2] = tested on: HepG2; test: CellTiterGlo viability assay, initial screening; details: Homo sapiens, read-out: IC50 (relative IC50)
Procedure, shortened: as §1

[3] = tested on: K562; test: CellTiterGlo viability assay, initial screening; details: Homo sapiens, read-out: IC50 (relative IC50)
Procedure, shortened: as §1

[4] = tested on: KG-1; test: CellTiterGlo viability assay, initial screening; details: Homo sapiens, read-out: IC50 (relative IC50)
Procedure, shortened: as §1

[5] = tested on: MCF-7; test: CellTiterGlo viability assay, initial screening; details: Homo sapiens, read-out: IC50 (relative IC50)
Procedure, shortened: as §1

[6] = tested on: MOLT-4; test: CellTiterGlo viability assay, initial screening; details: Homo sapiens, read-out: IC50 (relative IC50)
Procedure, shortened: as §1

[7] = tested on: HEL92.1.7; test: Solid tumour and haematological malignancy assay (CellTiterGlo); details: Homo sapiens; for IC50: read-out: IC50 (absolute IC50)
Procedure, shortened: (§2)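 Cell viability by CellTiterGlo after 72 h compound exposure under standard growth conditions, in duplicate, with 0.5% final DMSO.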

[8] = tested on: K562; test: as above; details: Homo sapiens; for IC50: read-out: IC50 (absolute IC50); for Emax: read-out: MI %
Procedure, shortened: as §2

[9] = tested on: KG-1; test: as above; details: Homo sapiens; for IC50: read-out: IC50 (absolute IC50); for Emax: read-out: MI %
Procedure, shortened: as §2

[10] = tested on: MCF7; test: as above; details: Homo sapiens; for IC50: read-out: IC50 (absolute IC50)
Procedure, shortened: as §2

[11] = tested on: BxPC-3; test: as above; details: Homo sapiens, read-out: IC50 (absolute IC50)
Procedure, shortened: (§3)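 Cells were exposed to compound for 72 hr under standard growth conditions, and viability was then read by CellTiterGlo luminescence. Treatment used a 9-point, 3.16-fold titration in duplicate, with a lowest final concentration of 19.9 nM and 0.5% final DMSO.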

[12] = tested on: HS445; test: as above; details: for IC50: read-out: IC50 (absolute IC50)
Procedure, shortened: as §3

[13] = tested on: Jurkat; test: as above; details: Homo sapiens, read-out: IC50 (absolute IC50)
Procedure, shortened: as §3

[14] = tested on: MOLT-4; test: as above; details: Homo sapiens; for IC50: read-out: IC50 (absolute IC50)
Procedure, shortened: as §3

[15] = tested on: MV4-11; test: as above; details: Homo sapiens; for IC50: read-out: IC50 (absolute IC50)
Procedure, shortened: as §3

[16] = tested on: NCI-H929; test: as above; details: Homo sapiens; for IC50: read-out: IC50 (absolute IC50)
Procedure, shortened: as §3

[17] = tested on: RL; test: as above; details: Homo sapiens; for IC50: read-out: IC50 (absolute IC50)
Procedure, shortened: as §3

[18] = tested on: RPMI-8226; test: as above; details: Homo sapiens; for IC50: read-out: IC50 (absolute IC50)
Procedure, shortened: as §3

[19] = tested on: SW620; test: as above; details: Homo sapiens; for IC50: read-out: IC50 (absolute IC50)
Procedure, shortened: as §3

[20] = tested on: THP-1; test: as above; details: Homo sapiens; for IC50: read-out: IC50 (absolute IC50)
Procedure, shortened: as §3

[21] = tested on: Z138; test: as above; details: Homo sapiens; for IC50: read-out: IC50 (absolute IC50)
Procedure, shortened: as §3

`Nc1ncnc2c1ncn2[C@@H]1O[C@H](CO)C[C@H]1O` [Cordycepin, 3′-deoxyadenosine, reference compound] showed an IC50 ([1]; HL-60, 72 hr) of 15 to 100 µM, an IC50 ([2]; HepG2, 72 hr) of 15 to 100 µM and an IC50 ([3]; K562, 72 hr) of 15 to 100 µM. It also gave an IC50 ([4]; KG-1, 72 hr) of 15 to 100 µM, an IC50 ([5]; MCF7, MCF-7, 72 hr) of 15 to 100 µM and an IC50 ([6]; MOLT-4, 72 hr) of 15 to 100 µM. The IC50 ([7]; HEL 92.1.7, HEL92.1.7, 72 hr) was 15 to 100 µM, the Emax ([7]; HEL 92.1.7, HEL92.1.7, 72 hr, read-out: MI %) was 88% and the IC50 ([8]; K562, 72 hr) was 15 to 100 µM. It also gave an Emax ([8]; K562, 72 hr) of 78%, an IC50 ([9]; KG-1, 72 hr) of over 100 µM and an Emax ([9]; KG-1, 72 hr) of 69%. It also gave an IC50 ([10]; MCF7, 72 hr) of over 100 µM, an Emax ([10]; MCF7, 72 hr, read-out: MI %) of 77% and an IC50 ([11]; BxPC-3, 72 hr) of over 100 µM. The IC50 ([12]; Hs 445, HS445, 72 hr) was over 100 µM, the Emax ([12]; Hs 445, HS445, 72 hr, read-out: MI %) was 2% and the IC50 ([13]; 72 hr) was over 100 µM. It also gave an IC50 ([14]; MOLT-4, 72 hr) of over 100 µM, an Emax ([14]; MOLT-4, 72 hr, read-out: MI %) of 46% and an IC50 ([15]; MV4-11, 72 hr) of over 100 µM. It also gave an Emax ([15]; MV4-11, 72 hr, read-out: MI %) of 1%, an IC50 ([16]; NCI-H929, 72 hr) of over 100 µM and an Emax ([16]; NCI-H929, 72 hr, read-out: MI %) of 24%. For the same compound, the IC50 ([17]; 72 hr) was over 100 µM, the Emax ([17]; 72 hr, read-out: MI %) was 17% and the IC50 ([18]; RPMI-8226, 72 hr) was over 100 µM. It also gave an Emax ([18]; RPMI-8226, 72 hr, read-out: MI %) of 1%, an IC50 ([19]; SW-620, SW620, 72 hr) of over 100 µM and an Emax ([19]; SW-620, SW620, 72 hr, read-out: MI %) of 10%. The IC50 ([20]; THP-1, 72 hr) was over 100 µM, the Emax ([20]; THP-1, 72 hr, read-out: MI %) was -3% and the IC50 ([21]; Z-138, Z138, 72 hr) was 5 to 15 µM. For the same compound, the Emax ([21]; Z-138, Z138, 72 hr, read-out: MI %) was 95%.
`COC(=O)C(C)(C)NP(=O)(OC[C@@H]1C[C@@H](O)[C@H](n2cnc3c(N)ncnc32)O1)Oc1cccc2ccccc12` (stereo partly drawn) [E, Methyl 2-(((((2S,4R,5R)-5-(6-amino-9H-purin-9-yl)-4-hydroxytetrahydrofuran-2-yl)-methoxy)(naphthalen-1-yloxy)phosphoryl)amino)-2-methylpropanoate] gave an IC50 ([1]; HL-60, 72 h) of 15 to 100 µM, an IC50 ([2]; HepG2, 72 h) of 15 to 100 µM and an IC50 ([3]; K562, 72 h) of over 100 µM. For the same compound, the IC50 ([4]; KG-1, 72 h) was 15 to 100 µM, the IC50 ([5]; MCF7, 72 h) was 15 to 100 µM and the IC50 ([6]; MOLT-4, 72 h) was 5 to 15 µM. For the same compound, the IC50 ([7]; HEL 92.1.7, 72 h) was 15 to 100 µM, the IC50 ([8]; K562, 72 h) was 5 to 15 µM and the Emax ([8]; K562, 72 h) was 90%. The IC50 ([9]; KG-1, 72 h) was 15 to 100 µM, the Emax ([9]; KG-1, 72 h) was 100% and the IC50 ([10]; MCF7, 72 h) was 5 to 15 µM. It also gave an IC50 ([11]; BXPC-3, 72 h) of 15 to 100 µM, an IC50 ([12]; Hs 445, 72 h) of 15 to 100 µM and an IC50 ([13]; 72 h) of 5 to 15 µM. The IC50 ([14]; MOLT-4, 72 h) was 0.1 to 5 µM, the IC50 ([15]; MV4-11, 72 h) was 5 to 15 µM and the IC50 ([16]; NCI-H929, 72 h) was 15 to 100 µM. The IC50 ([17]; 72 h) was 5 to 15 µM, the IC50 ([18]; RPMI-8226, 72 h) was 15 to 100 µM and the IC50 ([19]; SW-620, 72 h) was 15 to 100 µM. The IC50 ([20]; THP-1, 72 h) was over 100 µM and the IC50 ([21]; Z-138, 72 h) was 15 to 100 µM.
